ChEMBL document CHEMBL3616426 (Eur J Med Chem, 2015)

What was measured:
Estrogen receptor beta = Estrogen receptor beta (Homo sapiens, UniProt Q92731); assay: Agonist activity at ERbeta (248 to 510 amino acid residues) (unknown origin) assessed as induction of interaction with SRC1 after 24 hrs by yeast two-hybrid assay
[1] = target: T1, Estrogen receptor (Homo sapiens) (UniProt P03372); assay: Agonist activity at ERalpha (301 to 553 amino acid residues) (unknown origin) assessed as induction of interaction with SRC1 after 24 hrs by yeast two-hybrid assay relative to isopaucifloral F
T1 sequence (whole entry): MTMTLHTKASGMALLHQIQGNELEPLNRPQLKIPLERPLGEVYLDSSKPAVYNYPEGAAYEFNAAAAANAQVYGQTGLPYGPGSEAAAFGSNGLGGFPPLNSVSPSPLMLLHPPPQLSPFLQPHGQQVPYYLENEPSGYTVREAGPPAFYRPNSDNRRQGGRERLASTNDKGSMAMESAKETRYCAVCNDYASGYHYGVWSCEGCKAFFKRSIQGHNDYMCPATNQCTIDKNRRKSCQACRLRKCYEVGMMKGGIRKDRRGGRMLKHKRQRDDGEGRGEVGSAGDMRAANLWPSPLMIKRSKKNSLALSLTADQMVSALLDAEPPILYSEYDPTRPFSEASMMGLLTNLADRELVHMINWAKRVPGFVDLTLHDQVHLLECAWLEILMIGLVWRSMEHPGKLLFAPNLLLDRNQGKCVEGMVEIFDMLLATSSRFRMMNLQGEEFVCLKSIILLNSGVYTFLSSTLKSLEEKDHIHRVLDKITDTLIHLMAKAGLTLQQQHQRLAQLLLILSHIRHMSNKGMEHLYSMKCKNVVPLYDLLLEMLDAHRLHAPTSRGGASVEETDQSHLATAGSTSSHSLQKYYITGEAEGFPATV

[2] = target: T1, Estrogen receptor (Homo sapiens); assay: Antagonist activity at ERalpha (301 to 553 amino acid residues) (unknown origin) assessed as inhibition of E2 induced interaction with SRC1 after 24 hrs by yeast-two-hybrid assay; parameters: concentration or dose not given beside the values; scale not given: the % may be the effect or the level left
Rattus norvegicus [3] = assay: Antiosteoporotic activity in ovariectomized Sprague-Dawley rat assessed as bone volume /tissue volume at 1 ug/kg, po qd at 6th week by micro-CT analysis (reference value: 41.33 +/- 5.04%); assay type: functional
Rattus norvegicus [4] = assay: Antiosteoporotic activity in ovariectomized Sprague-Dawley rat assessed as trabecular separation at 1 ug/kg, po qd at 6th week by micro-CT analysis (reference value: 0.116 +/- 0.010 millimeter); assay type: functional, Trabecula
Rattus norvegicus [5] = assay: Antiosteoporotic activity in ovariectomized Sprague-Dawley rat assessed as trabecular thickness at 1 ug/kg, po qd at 18th week by micro-CT analysis (reference value: 0.103 +/- 0.0044 millimeter); assay type: functional, Trabecula
Rattus norvegicus [6] = assay: Antiosteoporotic activity in ovariectomized Sprague-Dawley rat assessed as trabecular separation at 1 ug/kg, po qd at 12th week by micro-CT analysis (reference value: 0.146 +/- 0.010 millimeter); assay type: functional, Trabecula
Rattus norvegicus [7] = assay: Antiosteoporotic activity in ovariectomized Sprague-Dawley rat assessed as trabecular thickness at 1 ug/kg, po qd at 12th week by micro-CT analysis (reference value: 0.070 +/- 0.0063 millimeter); assay type: functional, Trabecula
Rattus norvegicus [8] = assay: Antiosteoporotic activity in ovariectomized Sprague-Dawley rat assessed as bone volume /tissue volume at 1 ug/kg, po qd at 18th week by micro-CT analysis (reference value: 27.36 +/- 1.99%); assay type: functional
Rattus norvegicus [9] = assay: Antiosteoporotic activity in ovariectomized Sprague-Dawley rat assessed as serum osteocalcin level at 1 ug/kg, po qd at 18th week by enzyme immunoassay (reference value: 1118.9 +/- 37.77 ng/ml); assay type: functional
Rattus norvegicus [10] = assay: Antiosteoporotic activity in ovariectomized Sprague-Dawley rat assessed as trabecular separation at 1 ug/kg, po qd at 18th week by micro-CT analysis (reference value: 0.234 +/- 0.021 millimeter); assay type: functional, Trabecula
Rattus norvegicus [11] = assay: Antiosteoporotic activity in ovariectomized Sprague-Dawley rat assessed as trabecular thickness at 1 ug/kg, po qd at 6th week by micro-CT analysis (reference value: 0.086 +/- 0.0069 millimeter); assay type: functional, Trabecula
Rattus norvegicus [12] = assay: Antiosteoporotic activity in ovariectomized Sprague-Dawley rat assessed as bone volume /tissue volume at 1 ug/kg, po qd at 12th week by micro-CT analysis (reference value: 31.61 +/- 2.39%); assay type: functional
Rattus norvegicus [13] = assay: Antiosteoporotic activity in ovariectomized Sprague-Dawley rat assessed as serum osteocalcin level at 1 ug/kg, po qd at 12th week by enzyme immunoassay (reference value: 1055.8 +/- 14 ng/ml); assay type: functional

Estrogen receptor beta, sequence (Q92731 whole entry, the tested form may be a part): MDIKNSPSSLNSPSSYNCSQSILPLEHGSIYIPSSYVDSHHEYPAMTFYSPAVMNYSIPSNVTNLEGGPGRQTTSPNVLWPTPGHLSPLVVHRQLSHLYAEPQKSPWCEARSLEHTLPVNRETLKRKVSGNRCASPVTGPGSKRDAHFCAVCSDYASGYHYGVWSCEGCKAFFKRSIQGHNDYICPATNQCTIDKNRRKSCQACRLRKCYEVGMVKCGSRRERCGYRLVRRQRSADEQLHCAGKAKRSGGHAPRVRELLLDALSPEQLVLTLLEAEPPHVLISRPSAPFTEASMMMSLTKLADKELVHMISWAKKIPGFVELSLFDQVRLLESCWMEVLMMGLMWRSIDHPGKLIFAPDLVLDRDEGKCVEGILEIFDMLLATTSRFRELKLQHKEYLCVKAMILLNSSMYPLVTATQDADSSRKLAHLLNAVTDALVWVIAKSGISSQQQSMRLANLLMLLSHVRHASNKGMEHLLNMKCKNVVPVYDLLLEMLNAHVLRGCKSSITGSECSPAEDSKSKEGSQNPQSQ

Structure (SMILES): Oc1ccc(C2C(c3cc(O)cc(O)c3)=C(Cc3ccc(Cl)cc3)c3cc(O)cc(O)c32)cc1 (stereo not given)
- EC50 (Estrogen receptor beta): 45.8 µM
- fold change (FC) [1]: 0.88
- Activity [2]: 15.2%

Structure (SMILES): Cc1ccc([C@@H]2c3c(O)cc(O)cc3[C@H]3[C@H](c4ccc(O)cc4)c4c(O)cc(O)cc4[C@@H]23)cc1
- EC50 (Estrogen receptor beta): 5.65 µM
- fold change (FC) [1]: 0.99
- Activity [2]: 0%

Structure (SMILES): Oc1cc(O)c2c(c1)[C@H]1[C@H](c3ccccc3)c3c(O)cc(O)cc3[C@H]1[C@@H]2c1ccccc1
- fold change (FC) [1]: 0.86
- Activity [2]: 0%

Structure (SMILES): Oc1cc(O)cc(C2=C(Cc3ccccc3)c3cc(O)cc(O)c3C2c2ccccc2)c1 (stereo not given)
- fold change (FC) [1]: 0.88
- Activity [2]: 0%

Structure (SMILES): Oc1ccc(/C=C/c2cc(O)cc(O)c2)cc1
- fold change (FC) [1]: 0.1
- Activity [2]: 0%

Structure (SMILES): Oc1ccc(/C=C2/c3cc(O)cc(O)c3[C@@H](c3ccc(O)cc3)[C@@H]2c2cc(O)cc(O)c2)cc1
- fold change (FC) [1]: 0.92
- Activity [2]: 20.9%

Structure (SMILES): Oc1ccc(C2C(c3cc(O)cc(O)c3)=C(Cc3ccc(F)cc3)c3cc(O)cc(O)c32)cc1 (stereo not given)
- fold change (FC) [1]: 0.83
- Activity [2]: 1.59%

Structure (SMILES): Oc1ccc(C2C(c3cc(O)cc(O)c3)=C(Cc3ccccc3)c3cc(O)cc(O)c32)cc1 (stereo not given)
- fold change (FC) [1]: 0.98
- Activity [2]: 2%

Structure (SMILES): Oc1ccc(CC2=C(c3cc(O)cc(O)c3)C(c3ccc(O)cc3)c3c(O)cc(O)cc32)cc1 (stereo not given)
- fold change (FC) [1]: 0.94
- Activity [2]: 5.84%

Structure (SMILES): Oc1ccc(CC2=C(c3cc(O)cc(O)c3)C(c3ccccc3)c3c(O)cc(O)cc32)cc1 (stereo not given)
- fold change (FC) [1]: 0.86
- Activity [2]: 8.48%

Structure (SMILES): Oc1ccc([C@@H]2c3c(O)cc(O)cc3[C@H]3[C@H](c4ccc(F)cc4)c4c(O)cc(O)cc4[C@@H]23)cc1
- fold change (FC) [1]: 0.95
- Activity [2]: 0%

Structure (SMILES): Oc1ccc([C@@H]2c3c(O)cc(O)cc3[C@H]3[C@H](c4ccc(O)cc4)c4c(O)cc(O)cc4[C@@H]23)cc1
- fold change (FC) [1]: 1.01
- Activity [2]: 5.23%

Structure (SMILES): Oc1ccc([C@@H]2c3c(O)cc(O)cc3[C@H]3[C@H](c4ccccc4)c4c(O)cc(O)cc4[C@@H]23)cc1
- fold change (FC) [1]: 0.94
- Activity [2]: 0.76%

Structure (SMILES): O=C1c2cc(O)cc(O)c2[C@@H](c2ccc(F)cc2)[C@@H]1c1cc(O)cc(O)c1 (relative stereo)
- fold change (FC) [1]: 0.94
- Activity [2]: 7.61%

Structure (SMILES): O=C1c2cc(O)cc(O)c2[C@@H](c2ccccc2)[C@@H]1c1cc(O)cc(O)c1 (relative stereo)
- fold change (FC) [1]: 0.97
- Activity [2]: 7.59%

Structure (SMILES): Oc1ccc([C@@H]2c3c(O)cc(O)cc3C(O)[C@H]2c2cc(O)cc(O)c2)cc1 (relative stereo)
- fold change (FC) [1]: 1.04
- Activity [2]: 24.5%

Structure (SMILES): O=c1c(-c2ccc(O)cc2)coc2cc(O)cc(O)c12 [GENISTEIN]
- Activity (Rattus norvegicus [3]): 40.5%
- Activity (Rattus norvegicus [4]): 0.125 mm
- Activity (Rattus norvegicus [5]): 0.102 mm
- Activity (Rattus norvegicus [6]): 0.134 mm
- Activity (Rattus norvegicus [7]): 0.079 mm
- Activity (Rattus norvegicus [8]): 41.62%
- Activity (Rattus norvegicus [9]): 882.76 ng/mL
- Activity (Rattus norvegicus [10]): 0.157 mm
- Activity (Rattus norvegicus [11]): 0.084 mm
- Activity (Rattus norvegicus [12]): 40.62%
- Activity (Rattus norvegicus [13]): 954.33 ng/mL
